Consider eleven compounds from patent US20200331925A1, “HETEROCYCLIC COMPOUNDS FOR THE TREATMENT OF ABNORMAL CELLULAR PROLIFERATION” (G1 Therapeutics, Inc., priority 2018, published 2020).

The IC50 is the concentration needed to halve the response being measured.

What all share (type): biochemical
The target of assay [1] is CDK3/Cyclin E (Homo sapiens, UniProt Q00526). Kind of assay: CDK3/Cyclin E kinase assay (Nanosyn, Caliper microfluidic). Conditions: 12-point dose-response, ATP at Km (400 μM), 3 hr. The procedure, abridged:
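Caliper microfluidic mobility-shift read-out with 1 nM enzyme, 400 μM ATP (stated as Km) and 1 μM peptide substrate, 3 hr incubation. Compounds run as 12-point dose-response in singlicate.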

For assay [2], the target named is CDK5/p25 (Homo sapiens, UniProt Q00535). Kind of assay: CDK5/p25 kinase assay (Nanosyn, Caliper microfluidic). Conditions: 12-point dose-response, ATP at Km (20 μM), 3 hr. The procedure, abridged: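 Caliper microfluidic mobility-shift assay, 12-point dose-response in singlicate. CDK5/p25 at 0.1 nM with 20 μM ATP (Km) and 1 μM peptide substrate. Incubation 3 hr.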
CDK5/p25, sequence (Q00535 whole entry): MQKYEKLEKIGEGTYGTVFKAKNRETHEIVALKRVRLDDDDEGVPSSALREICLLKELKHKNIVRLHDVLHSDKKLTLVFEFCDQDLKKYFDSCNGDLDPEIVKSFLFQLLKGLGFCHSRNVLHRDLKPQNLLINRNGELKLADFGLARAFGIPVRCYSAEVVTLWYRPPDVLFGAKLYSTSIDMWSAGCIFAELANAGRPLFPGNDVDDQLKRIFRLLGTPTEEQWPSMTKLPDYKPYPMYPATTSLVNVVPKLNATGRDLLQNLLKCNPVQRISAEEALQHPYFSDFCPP
CDK5/p25, sequence (Q15078 99-307 partner limits assumed): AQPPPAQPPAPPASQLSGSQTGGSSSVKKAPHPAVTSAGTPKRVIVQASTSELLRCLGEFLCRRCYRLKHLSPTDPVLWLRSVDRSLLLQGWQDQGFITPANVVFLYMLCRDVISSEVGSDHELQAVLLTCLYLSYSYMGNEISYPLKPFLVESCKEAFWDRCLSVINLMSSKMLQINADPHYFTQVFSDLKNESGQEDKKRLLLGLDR

Assay [3] addresses CDK9/Cyclin T (Homo sapiens, UniProt P50750). Kind of assay: CDK9/Cyclin T kinase assay (Nanosyn, Caliper microfluidic). Conditions: 12-point dose-response, ATP at Km (10 μM), 17 hr; Table 5. A digest of the protocol:
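Caliper microfluidic mobility-shift read-out, 12-point dose-response in singlicate at ATP Km with 1 μM peptide substrate; staurosporine reference.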

Assay [4] addresses CDK6/Cyclin D3 (Homo sapiens, UniProt Q00534). Kind of assay: CDK6/Cyclin D3 kinase assay (Nanosyn, Caliper microfluidic). To be noted: 12-point dose-response, ATP at Km (300 μM), 3 hr. The procedure, abridged: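 Caliper microfluidic assay with 2 nM enzyme, 300 μM ATP and 1 μM phosphoacceptor peptide, incubated for 3 hr. Compounds were run as 12-point dose-response curves in singlicate.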

The target in assay [5] is CDK1/Cyclin B1 (Homo sapiens, UniProt P06493). Kind of assay: CDK1/Cyclin B1 kinase assay (Nanosyn, Caliper microfluidic). To be noted: 12-point dose-response, ATP at Km (40 μM), 3 hr. The procedure, abridged:
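Mobility-shift microfluidic kinase assay, 12-point dose-response in singlicate. Conditions: 0.08 nM enzyme, 40 μM ATP (Km), 1 μM peptide substrate, 3 hr incubation; staurosporine as reference.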

For assay [6], the target named is CDK2/Cyclin E (Homo sapiens, UniProt P24941). Kind of assay: CDK2/Cyclin E kinase assay (Nanosyn, Caliper microfluidic). To be noted: 12-point dose-response, ATP at Km (100 μM), 3 hr. The procedure, abridged:
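Caliper microfluidic mobility-shift readout of phosphorylation of 1 μM substrate peptide by 0.15 nM enzyme at 100 μM ATP (stated as Km), 3 hr incubation. 12-point dose-response in singlicate, staurosporine as reference.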

Assay [7] addresses CDK7/Cyclin H (Homo sapiens, UniProt P50613). Kind of assay: CDK7/Cyclin H kinase assay (Nanosyn, Caliper microfluidic). To be noted: 12-point dose-response, ATP at Km (50 μM), 17 hr. The procedure, abridged:
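Caliper microfluidic mobility-shift assay with 10 nM CDK7/Cyclin H, 50 μM ATP (Km) and 1 μM peptide substrate, incubated 17 hr. Compounds run in 12-point dose-response, singlicate.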

The target of assay [8] is CDK4/Cyclin D1 (Homo sapiens, UniProt P11802). Kind of assay: CDK4/Cyclin D1 kinase assay (Nanosyn, Caliper microfluidic). Conditions: 12-point dose-response, ATP at Km (200 μM), 3 hr; Table 4. The procedure, abridged: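 Caliper microfluidic mobility-shift read-out, 12-point dose-response in singlicate. 1 nM enzyme, 200 μM ATP (Km), 1 μM peptide substrate, 3 hr incubation; staurosporine as reference.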
CDK4/Cyclin D1, sequence (P11802 whole entry): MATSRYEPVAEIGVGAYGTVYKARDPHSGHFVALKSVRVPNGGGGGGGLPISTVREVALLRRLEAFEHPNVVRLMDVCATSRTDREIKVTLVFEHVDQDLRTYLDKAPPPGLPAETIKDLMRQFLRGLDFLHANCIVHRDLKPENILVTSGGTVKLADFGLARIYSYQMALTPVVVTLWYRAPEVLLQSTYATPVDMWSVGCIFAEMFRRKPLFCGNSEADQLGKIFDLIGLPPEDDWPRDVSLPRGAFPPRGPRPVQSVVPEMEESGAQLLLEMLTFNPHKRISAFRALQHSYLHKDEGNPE
CDK4/Cyclin D1, sequence (P24385 whole entry partner): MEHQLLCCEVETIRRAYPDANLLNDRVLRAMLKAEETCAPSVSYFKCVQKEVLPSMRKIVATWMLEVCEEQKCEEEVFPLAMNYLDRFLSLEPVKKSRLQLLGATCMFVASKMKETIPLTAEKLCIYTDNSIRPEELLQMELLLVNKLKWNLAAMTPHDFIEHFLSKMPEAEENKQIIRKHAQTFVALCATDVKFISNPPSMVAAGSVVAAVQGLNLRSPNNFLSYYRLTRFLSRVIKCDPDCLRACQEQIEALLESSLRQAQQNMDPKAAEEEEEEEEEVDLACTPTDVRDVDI

Assay [9] addresses CDK2/Cyclin A (Homo sapiens, UniProt P24941). Kind of assay: CDK2/Cyclin A kinase assay (Nanosyn, Caliper microfluidic). To be noted: 12-point dose-response, ATP at Km (50 μM), 3 hr. The procedure, abridged: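 Caliper microfluidic mobility-shift read-out; 0.1 nM enzyme, 50 μM ATP (Km), 1 μM peptide substrate, 3 hr incubation. 12-point dose-response in singlicate; staurosporine as reference.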

Assay [10] addresses CDK5/p35 (Homo sapiens, UniProt Q00535). Kind of assay: CDK5/p35 kinase assay (Nanosyn, Caliper microfluidic). To be noted: 12-point dose-response, ATP at Km (20 μM), 3 hr. A digest of the protocol: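 Microfluidic mobility-shift kinase assay with 0.05 nM CDK5/p35, 20 μM ATP (Km) and 1 μM peptide substrate, 3 hr incubation. Compounds tested as 12-point dose–response in singlicate; staurosporine as reference.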

Structures are written as SMILES.

CDK1/Cyclin B1, sequence (P06493 whole entry): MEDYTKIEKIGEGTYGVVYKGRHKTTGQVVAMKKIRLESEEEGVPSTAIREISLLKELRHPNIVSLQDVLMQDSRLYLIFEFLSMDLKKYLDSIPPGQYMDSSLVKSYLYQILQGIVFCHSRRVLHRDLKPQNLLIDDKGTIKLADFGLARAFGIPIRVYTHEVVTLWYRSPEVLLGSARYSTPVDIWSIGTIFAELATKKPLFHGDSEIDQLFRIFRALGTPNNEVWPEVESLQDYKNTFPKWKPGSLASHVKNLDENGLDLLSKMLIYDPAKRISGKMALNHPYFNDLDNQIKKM
CDK1/Cyclin B1, sequence (P14635 whole entry partner): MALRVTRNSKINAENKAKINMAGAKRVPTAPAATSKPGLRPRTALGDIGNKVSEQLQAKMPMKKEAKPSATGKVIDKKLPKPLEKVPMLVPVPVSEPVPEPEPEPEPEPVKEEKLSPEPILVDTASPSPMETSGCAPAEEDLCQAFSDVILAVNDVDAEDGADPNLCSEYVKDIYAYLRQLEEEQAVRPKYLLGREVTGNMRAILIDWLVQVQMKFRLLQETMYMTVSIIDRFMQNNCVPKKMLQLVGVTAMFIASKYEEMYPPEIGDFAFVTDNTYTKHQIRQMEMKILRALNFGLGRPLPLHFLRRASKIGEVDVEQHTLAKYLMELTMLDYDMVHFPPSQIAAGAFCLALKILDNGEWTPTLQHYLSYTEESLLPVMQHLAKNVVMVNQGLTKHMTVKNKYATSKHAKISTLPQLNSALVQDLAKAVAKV
CDK7/Cyclin H, sequence (P50613 whole entry): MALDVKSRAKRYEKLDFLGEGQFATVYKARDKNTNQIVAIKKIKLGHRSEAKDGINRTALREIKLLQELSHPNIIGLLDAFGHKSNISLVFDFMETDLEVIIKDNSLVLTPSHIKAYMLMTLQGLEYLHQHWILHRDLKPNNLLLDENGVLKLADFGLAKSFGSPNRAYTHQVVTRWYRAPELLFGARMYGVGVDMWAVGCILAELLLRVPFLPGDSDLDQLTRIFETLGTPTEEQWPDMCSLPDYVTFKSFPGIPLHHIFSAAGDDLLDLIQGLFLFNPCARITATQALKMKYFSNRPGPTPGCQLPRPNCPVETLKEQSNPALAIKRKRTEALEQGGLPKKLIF
CDK7/Cyclin H, sequence (P51946 whole entry partner): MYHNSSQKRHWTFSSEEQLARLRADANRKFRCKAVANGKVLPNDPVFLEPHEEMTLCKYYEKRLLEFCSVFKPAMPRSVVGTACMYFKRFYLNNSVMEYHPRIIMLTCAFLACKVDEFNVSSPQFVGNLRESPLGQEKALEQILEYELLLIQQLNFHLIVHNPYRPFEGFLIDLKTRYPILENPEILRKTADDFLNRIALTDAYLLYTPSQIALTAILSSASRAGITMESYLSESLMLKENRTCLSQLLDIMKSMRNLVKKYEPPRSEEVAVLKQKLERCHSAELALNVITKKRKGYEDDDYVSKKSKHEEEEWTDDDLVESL
CDK7/Cyclin H, sequence (P51948 whole entry partner): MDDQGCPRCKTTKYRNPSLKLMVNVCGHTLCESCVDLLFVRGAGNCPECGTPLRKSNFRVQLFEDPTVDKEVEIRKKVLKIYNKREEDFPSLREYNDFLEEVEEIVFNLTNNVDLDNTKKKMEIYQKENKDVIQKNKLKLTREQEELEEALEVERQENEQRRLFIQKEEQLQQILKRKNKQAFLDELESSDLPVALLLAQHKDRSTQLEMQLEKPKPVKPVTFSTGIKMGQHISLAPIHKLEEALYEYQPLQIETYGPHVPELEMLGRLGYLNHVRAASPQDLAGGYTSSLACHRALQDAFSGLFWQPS
CDK9/Cyclin T, sequence (P50750 whole entry): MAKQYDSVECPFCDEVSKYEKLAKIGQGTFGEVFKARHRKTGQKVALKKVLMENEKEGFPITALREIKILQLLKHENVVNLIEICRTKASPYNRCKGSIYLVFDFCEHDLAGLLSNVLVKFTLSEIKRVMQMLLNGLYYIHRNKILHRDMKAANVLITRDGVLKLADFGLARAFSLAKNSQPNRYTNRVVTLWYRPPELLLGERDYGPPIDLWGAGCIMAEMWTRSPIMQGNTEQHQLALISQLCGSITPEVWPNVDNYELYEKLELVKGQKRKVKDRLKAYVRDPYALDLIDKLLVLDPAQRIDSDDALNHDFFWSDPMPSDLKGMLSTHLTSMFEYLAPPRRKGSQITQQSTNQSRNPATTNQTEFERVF
CDK9/Cyclin T, sequence (O60563 whole entry partner): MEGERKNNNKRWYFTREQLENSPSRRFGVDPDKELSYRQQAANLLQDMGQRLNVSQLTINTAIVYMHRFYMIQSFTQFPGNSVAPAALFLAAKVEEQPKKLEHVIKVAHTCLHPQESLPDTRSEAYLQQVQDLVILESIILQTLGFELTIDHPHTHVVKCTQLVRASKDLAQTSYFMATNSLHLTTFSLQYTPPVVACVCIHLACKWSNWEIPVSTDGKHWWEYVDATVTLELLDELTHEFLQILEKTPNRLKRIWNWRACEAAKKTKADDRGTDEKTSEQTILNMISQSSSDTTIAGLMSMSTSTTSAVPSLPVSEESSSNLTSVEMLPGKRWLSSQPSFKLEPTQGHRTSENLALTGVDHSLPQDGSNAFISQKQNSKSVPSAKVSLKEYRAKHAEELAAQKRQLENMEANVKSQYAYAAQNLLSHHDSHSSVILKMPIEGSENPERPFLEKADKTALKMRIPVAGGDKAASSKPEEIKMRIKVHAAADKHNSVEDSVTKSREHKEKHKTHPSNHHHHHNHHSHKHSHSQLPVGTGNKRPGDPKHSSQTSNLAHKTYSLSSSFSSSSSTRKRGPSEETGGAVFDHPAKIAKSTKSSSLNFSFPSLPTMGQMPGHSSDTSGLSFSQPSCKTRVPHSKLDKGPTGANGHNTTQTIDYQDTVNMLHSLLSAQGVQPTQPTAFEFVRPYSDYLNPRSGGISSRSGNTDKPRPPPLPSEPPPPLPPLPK
CDK5/p35, sequence (Q00535 whole entry): as the sequence (Q00535 whole entry) above
CDK5/p35, sequence (Q15078 whole entry partner): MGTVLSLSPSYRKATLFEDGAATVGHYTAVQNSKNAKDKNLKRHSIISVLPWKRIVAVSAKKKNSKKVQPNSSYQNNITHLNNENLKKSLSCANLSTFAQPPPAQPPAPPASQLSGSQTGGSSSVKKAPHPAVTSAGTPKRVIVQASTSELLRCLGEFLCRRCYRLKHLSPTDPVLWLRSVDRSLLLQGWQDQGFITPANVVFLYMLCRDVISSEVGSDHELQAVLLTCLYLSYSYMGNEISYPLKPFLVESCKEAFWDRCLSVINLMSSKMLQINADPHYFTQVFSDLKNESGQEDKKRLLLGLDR

In the case of `O=C1NCC2(CCCCC2)n2c1cc1cnc(NC(=O)[C@H]3CCNC3)nc12` [Compound 33, (S)-N-(6′-oxo-7′,8′-dihydro-6′H-spiro[cyclohexane-1,9′-pyrazino[1′,2′:1,5]pyrrolo[2,3-d]pyrimidin]-2′-yl)pyrrolidine-3-carboxamide], the half-maximal inhibitory concentration (IC50) stood at 23000 nM in assay [1]; 34000 nM in [2]; 35 nM in [3]; 12000 nM in assay [4]; 16000 nM in [5]; 26000 nM in assay [6]. Further, the half-inhibitory concentration (IC50) in assay [7] was 20000 nM; in assay [8] it was 3300 nM; in [9] it was 6100 nM; in [10] it was 34000 nM.
Consider `N[C@H]1CC[C@H](Nc2ncc3cc4n(c3n2)C2(CCCCC2)CNC4=O)CC1` [Compound 49, 2′-(((1r,4r)-4-aminocyclohexyl)amino)-7′,8′-dihydro-6′H-spiro[cyclohexane-1,9′-pyrazino[1′,2′:1,5]pyrrolo[2,3-d]pyrimidin]-6′-one], for which the IC50 is 110 nM in assay [1]; 140 nM in assay [2]; 2.2 nM in assay [3]; 40 nM in [4]; 140 nM in assay [5]; 72 nM in assay [6]. In addition, the IC50 amounted to 100 nM in assay [7], 6.8 nM in [8], 33 nM in [9] and 160 nM in assay [10].
As for `C[C@H]1NCCC[C@H]1C(=O)Nc1ncc2cc3n(c2n1)C1(CCCCC1)CNC3=O` [Compound 30, (2R,3R)-2-methyl-N-(6′-oxo-7′,8′-dihydro-6′H-spiro[cyclohexane-1,9′-pyrazino[1′,2′:1,5]pyrrolo[2,3-d]pyrimidin]-2′-yl)piperidine-3-carboxamide], the IC50 in assay [1] was found to be 6900 nM; in assay [2] it was 8400 nM; in assay [3] it was 45 nM; in assay [4], 15000 nM; in assay [5], 3800 nM; in [6], 5400 nM. For the same compound, the IC50 in assay [7] amounted to 4500 nM; in assay [8] it was 1500 nM; in assay [9], 1900 nM; in assay [10] it was 8000 nM.
`N[C@H]1CC[C@@H](Nc2ncc3cc4n(c3n2)C2(CCCCC2)CN=C4)CC1` [Compound 55, (1s,4s)-N^1-(8′H-spiro[cyclohexane-1,9′-pyrazino[1′,2′:1,5]pyrrolo[2,3-d]pyrimidin]-2′-yl)cyclohexane-1,4-diamine]: the IC50 in assay [1] was found to be 460 nM; in [2] it was 2000 nM; in assay [3] it was 22 nM; in [4] it was 680 nM; in assay [5], 1400 nM; in assay [6], 330 nM. Moreover, the IC50 was found to be 120 nM in [7], 92 nM in assay [8], 810 nM in assay [9] and 1700 nM in [10].
For `O=C1NCC2(CCCCC2)n2c1cc1cnc(N[C@@H]3C[C@@H](O)CNC3=O)nc12` [Compound 8, 2′-(((3R,5R)-5-hydroxy-2-oxopiperidin-3-yl)amino)-7′,8′-dihydro-6′H-spiro[cyclohexane-1,9′-pyrazino[1′,2′:1,5]pyrrolo[2,3-d]pyrimidin]-6′-one], the IC50 in assay [1] was 18000 nM; in assay [2] it was 25000 nM; in assay [3] it was 440 nM; in assay [4], 530 nM; in assay [5] it was 27000 nM; in assay [6], 24000 nM. Moreover, the IC50 in assay [7] was found to be 7200 nM; in [8] it was 100 nM; in [9] it was 11000 nM; in [10] it was 26000 nM.
In the case of `O=C1NCC2(CCCCC2)n2c1cc1cnc(NC(=O)[C@@H]3CCCNC3)nc12` [Compound 11, (R)-N-(6′-oxo-7′,8′-dihydro-6′H-spiro[cyclohexane-1,9′-pyrazino[1′,2′:1,5]pyrrolo[2,3-d]pyrimidin]-2′-yl)piperidine-3-carboxamide], the half-maximal inhibitory concentration (IC50) in assay [1] is 7200 nM; in assay [2], 35000 nM; in assay [3] it was 5.5 nM; in [4], 28000 nM; in [5], 4400 nM; in assay [6] it was 13000 nM. Moreover, the IC50 was found to be 13000 nM in [7], 2900 nM in assay [8], 3100 nM in assay [9] and 30000 nM in [10].
Consider `NS(=O)(=O)c1cccc(Nc2ncc3cc4n(c3n2)C2(CCCCC2)CNC4=O)c1` [Compound 42, 3-((6′-oxo-7′,8′-dihydro-6′H-spiro[cyclohexane-1,9′-pyrazino[1′,2′:1,5]pyrrolo[2,3-d]pyrimidin]-2′-yl)amino)benzenesulfonamide], for which the half-inhibitory concentration (IC50) in [1] was found to be 12 nM; in assay [2], 5.5 nM; in [3], 1.2 nM; in assay [4], 22 nM; in assay [5], 8.8 nM; in assay [6], 7.8 nM. Further, the IC50 is 240 nM in assay [7], 8.9 nM in [8], 4.3 nM in assay [9] and 7.5 nM in [10].
In the case of `O=C1NCC2(CCCCC2)n2c1cc1cnc(N[C@@H]3CCCNC3)nc12` [Compound 48, (R)-2′-(piperidin-3-ylamino)-7′,8′-dihydro-6′H-spiro[cyclohexane-1,9′-pyrazino[1′,2′:1,5]pyrrolo[2,3-d]pyrimidin]-6′-one], the 50% inhibitory concentration (IC50) in assay [1] was found to be 1000 nM; in assay [2], 1200 nM; in [3] it was 9 nM; in assay [4], 230 nM; in [5] it was 510 nM; in [6] it was 1100 nM. The IC50 was 330 nM in [7], 51 nM in assay [8], 390 nM in assay [9] and 1300 nM in assay [10].
`O=C(C[C@H]1CCCN1)Nc1ncc2cc3n(c2n1)C1(CCCCC1)CNC3=O` [Compound 37, (R)-N-(6′-oxo-7′,8′-dihydro-6′H-spiro[cyclohexane-1,9′-pyrazino[1′,2′:1,5]pyrrolo[2,3-d]pyrimidin]-2′-yl)-2-(pyrrolidin-2-yl)acetamide]: the IC50 in assay [1] came to 38000 nM; in assay [2], 31000 nM; in assay [3], 120 nM; in [4], 14000 nM; in assay [5], 27000 nM; in assay [6] it was 29000 nM. Besides, the IC50 in assay [7] was 17000 nM; in [8], 6300 nM; in [9], 16000 nM; in [10], 28000 nM.
On to `C1=NCC2(CCCCC2)n2c1cc1cnc(N[C@H]3CCCNC3)nc12` [Compound 50, (S)-N-(piperidin-3-yl)-8′H-spiro[cyclohexane-1,9′-pyrazino[1′,2′:1,5]pyrrolo[2,3-d]pyrimidin]-2′-amine], for which the 50% inhibitory concentration (IC50) turned out to be 64 nM in assay [1]; 190 nM in [2]; 23 nM in assay [3]; 1100 nM in assay [4]; 280 nM in [5]; 190 nM in [6]. In addition, the half-inhibitory concentration (IC50) was 42 nM in assay [7], 310 nM in [8], 280 nM in [9] and 180 nM in assay [10].
On to `S=C1NCC2(CCCCC2)n2c1cc1cnc(N[C@H]3CCCNC3)nc12` [Compound 40, (S)-2′-(piperidin-3-ylamino)-7′,8′-dihydro-6′H-spiro[cyclohexane-1,9′-pyrazino[1′,2′:1,5]pyrrolo[2,3-d]pyrimidine]-6′-thione], for which the IC50 in assay [1] worked out at 17 nM; in assay [2], 40 nM; in assay [3], 3.4 nM; in assay [4] it was 79 nM; in [5] it was 61 nM; in [6] it was 110 nM. For the same compound, the 50% inhibitory concentration (IC50) was 10 nM in assay [7], 23 nM in [8], 100 nM in assay [9] and 51 nM in assay [10].
